Where a name gives a salt, the structure may show the parent alone.
System: Acinetobacter baumannii ATCC17961
Assay: Antimicrobial susceptibility testing: 90% growth inhibitory concentration (IC90) determination
Format: cell-based
Details: Acinetobacter baumannii, ATCC17961, 16 h, 90% growth inhibitory concentration against Acinetobacter baumannii ATCC17961, Iso-Sensitest broth, OD 600 nm over 16 h; read-out: ATCC 17961 IC90
Protocol: The in vitro antimicrobial activity of the compounds was determined according to the following procedure: The assay used a 10-points Iso-Sensitest broth medium to measure quantitatively the in vitro activity of the compounds against Acinetobacter baumannii ATCC17961. Stock compounds in DMSO were serially twofold diluted (e.g. range from 10 to 0.0195 μM final concentration) in 384 wells microtiter plates and inoculated with 49 μL the bacterial suspension in Iso-Sensitest medium to have a final cell concentration of ˜5×10^(5) CFU/mL in a final volume/well of 50 μL/well. Microtiter plates were incubated at 35±2° C. Bacterial cell growth was determined with the measurement of optical density at λ=600 nm each min over a time course of 16 h. Growth inhibition was calculated during the logarithmic growth of the bacterial cells with determination of the concentration inhibiting 50% (IC50) and 90% (IC90) of the growth. Table 1 provides the 90% growth inhibitory concentrations (IC90) in micromoles per liter of the compounds of present invention obtained against the strain Acinetobacter baumannii ATCC17961.

Compound	IC90 [µM]
COCCNc1ccc(-n2cc(-c3cnc(C(=O)Nc4ccc(C(=O)N5CCN(C(=O)[C@H]6CC[N@+](CC(=O)O)(CC7CNC7)CC6)CC5)c(Cl)c4)n3C)c(C(F)(F)F)n2)nc1 [Example 31, cis-2-[1-(Azetidin-3-ylmethyl)-4-[4-[2-chloro-4-[[5-[1-[5-(2-methoxyethylamino)-2-pyridyl]-3-(trifluoromethyl)pyrazol-4-yl]-1-methyl-imidazole-2-carbonyl]amino]benzoyl]piperazine-1-carbonyl]piperidin-1-ium-1-yl]acetic Acid;2,2,2-trifluoroacetate]	0.37
Cn1c(-c2cn(-c3ccc4[nH]c(CO)cc4n3)nc2C(F)(F)F)cnc1C(=O)Nc1ccc(C(=O)N2CCN(C(=O)[C@H]3CC[N@+](CC(=O)O)(CC4CNC4)CC3)CC2)c(Cl)c1 [Example 33, cis-2-[1-(azetidin-3-ylmethyl)-4-[4-[2-chloro-4-[[1-methyl-5-[1-(2-methylol-1H-pyrrolo[3,2-b]pyridin-5-yl)-3-(trifluoromethyl)pyrazol-4-yl]imidazole-2-carbonyl]amino]benzoyl]piperazine-1-carbonyl]piperidin-1-ium-1-yl]acetic acid. 1:1 2,2,2-trifluoroacetate]	0.38
Cn1c(-c2cn(-c3ccc(N)cn3)nc2C(F)(F)F)cnc1C(=O)Nc1ccc(C(=O)N2CCN(C(=O)[C@H]3CC[N@+](CC(=O)O)(CC4CNC4)CC3)CC2)c(Cl)c1 [Example 34, cis-2-[4-[4-[4-[[5-[1-(5-amino-2-pyridyl)-3-(trifluoromethyl)pyrazol-4-yl]-1-methyl-imidazole-2-carbonyl]amino]-2-chloro-benzoyl]piperazine-1-carbonyl]-1-(azetidin-3-ylmethyl)piperidin-1-ium-1-yl]acetic acid. 1:1 2,2,2-trifluoroacetic acid. 1:1 2,2,2-trifluoroacetate]	0.4
Cn1c(-c2cn(-c3ccc(NCCN)cn3)nc2C(F)(F)F)cnc1C(=O)Nc1ccc(C(=O)N2CCN(C(=O)CCC[N+](CCCCN)(CCCCN)CC(=O)O)CC2)c(Cl)c1 [Example 36, bis(4-aminobutyl)-[4-[4-[4-[[5-[1-[5-(2-aminoethylamino)-2-pyridyl]-3-(trifluoromethyl)pyrazol-4-yl]-1-methyl-imidazole-2-carbonyl]amino]-2-chloro-benzoyl]piperazino]-4-keto-butyl]-(carboxymethyl)ammonium. 1:2 2,2,2-trifluoroacetic acid. 1:1 2,2,2-trifluoroacetate]	0.42
Cn1c(-c2cn(-c3ccc(Nc4ccccn4)cn3)nc2C(F)(F)F)cnc1C(=O)Nc1ccc(C(=O)N2CCN(C(=O)C3CC[N+](CC(=O)O)(CC4CNC4)CC3)CC2)c(Cl)c1 (stereo not drawn) [Example 41, 2-[1-(azetidin-3-ylmethyl)-4-[4-[2-chloro-4-[[1-methyl-5-[1-[5-(2-pyridylamino)-2-pyridyl]-3-(trifluoromethyl)pyrazol-4-yl]imidazole-2-carbonyl]amino]benzoyl]piperazine-1-carbonyl]piperidin-1-ium-1-yl]acetic acid. 1:1 formate]	0.44

Next, values leading:

IC90 [µM]	Compound
0.37	Cn1c(-c2cn(-c3ccc(N)cn3)nc2C(F)(F)F)cnc1C(=O)Nc1ccc(C(=O)N2CCN(C(=O)C3CC[N+](CCCN)(CC(=O)O)CC3)CC2)c(Cl)c1 (stereo not drawn) [Example 30, 2-[1-(3-aminopropyl)-4-[4-[4-[[5-[1-(5-amino-2-pyridyl)-3-(trifluoromethyl)pyrazol-4-yl]-1-methyl-imidazole-2-carbonyl]amino]-2-chloro-benzoyl]piperazine-1-carbonyl]piperidin-1-ium-1-yl]acetic acid. 1:1 2,2,2-trifluoroacetate]
0.37	Cn1c(-c2cn(-c3ccc(N)cn3)nc2C(F)(F)F)cnc1C(=O)Nc1ccc(C(=O)N2CCN(C(=O)[C@H]3CC[N@@+](CCCN)(CC(=O)O)CC3)CC2)c(Cl)c1 [Example 32, cis-2-[1-(3-aminopropyl)-4-[4-[4-[[5-[1-(5-amino-2-pyridyl)-3-(trifluoromethyl)pyrazol-4-yl]-1-methyl-imidazole-2-carbonyl]amino]-2-chloro-benzoyl]piperazine-1-carbonyl]piperidin-1-ium-1-yl]acetic acid. 1:1 2,2,2-trifluoroacetate]
0.4	Cn1c(-c2cn(-c3ccc(N)cn3)nc2C(F)(F)F)cnc1C(=O)Nc1ccc(C(=O)N2CCN(C(=O)CCC[N+](CCCN)(CCCN)CC(=O)O)CC2)c(Cl)c1 [Example 35, bis(3-aminopropyl)-[4-[4-[4-[[5-[1-(5-amino-2-pyridyl)-3-(trifluoromethyl)pyrazol-4-yl]-1-methyl-imidazole-2-carbonyl]amino]-2-chloro-benzoyl]piperazino]-4-keto-butyl]-(carboxymethyl)ammonium. 1:1 2,2,2-trifluoroacetic acid. 1:1 2,2,2-trifluoroacetate]
0.42	COc1ccc(-n2cc(-c3cnc(C(=O)Nc4ccc(C(=O)N5CCN(C(=O)C6CC[N+](CC(=O)O)(CC7CNC7)CC6)CC5)c(Cl)c4)n3C)c(C(F)(F)F)n2)cc1 (stereo not drawn) [Example 37, 2-[1-(azetidin-3-ylmethyl)-4-[4-[2-chloro-4-[[5-[1-(4-methoxyphenyl)-3-(trifluoromethyl)pyrazol-4-yl]-1-methyl-imidazole-2-carbonyl]amino]benzoyl]piperazine-1-carbonyl]piperidin-1-ium-1-yl]acetic acid. 1:1 formate]
0.43	Cn1c(-c2cn(-c3ccc(NCCO)cn3)nc2C(F)(F)F)cnc1C(=O)Nc1ccc(C(=O)N2CCN(C(=O)[C@H]3CC[N@+](CC(=O)O)(CC4CNC4)CC3)CC2)c(Cl)c1 [Example 38, cis-2-[1-(azetidin-3-ylmethyl)-4-[4-[2-chloro-4-[[5-[1-[5-(2-hydroxyethylamino)-2-pyridyl]-3-(trifluoromethyl)pyrazol-4-yl]-1-methyl-imidazole-2-carbonyl]amino]benzoyl]piperazine-1-carbonyl]piperidin-1-ium-1-yl]acetic acid; formate]
0.43	Cn1c(-c2cn(-c3ccc4c(ccn4C)n3)nc2C(F)(F)F)cnc1C(=O)Nc1ccc(C(=O)N2CCN(C(=O)[C@H]3CC[N@+](CC(=O)O)(CC4CNC4)CC3)CC2)c(Cl)c1 [Example 39, cis-2-[1-(azetidin-3-ylmethyl)-4-[4-[2-chloro-4-[[1-methyl-5-[1-(1-methylpyrrolo[3,2-b]pyridin-5-yl)-3-(trifluoromethyl)pyrazol-4-yl]imidazole-2-carbonyl]amino]benzoyl]piperazine-1-carbonyl]piperidin-1-ium-1-yl]acetic acid. 1:1 2,2,2-trifluoroacetate]
0.43	CC(C)Nc1ccc(-n2cc(-c3cnc(C(=O)Nc4ccc(C(=O)N5CCN(C(=O)C6CC[N+](CC(=O)O)(CC7CNC7)CC6)CC5)c(Cl)c4)n3C)c(C(F)(F)F)n2)nc1 (stereo not drawn) [Example 40, 2-[1-(azetidin-3-ylmethyl)-4-[4-[2-chloro-4-[[5-[1-[5-(isopropylamino)-2-pyridyl]-3-(trifluoromethyl)pyrazol-4-yl]-1-methyl-imidazole-2-carbonyl]amino]benzoyl]piperazine-1-carbonyl]piperidin-1-ium-1-yl]acetic acid. 1:1 formate]
